Test [1] has as its system HMEC cells (primary human mammary breast epithelial cells). Put plainly: Cell proliferation assay (AlamarBlue), normal HMEC. The class given is cell-based. Conditions: 48 h. The protocol: (§1) Cell culture. Four human cancer cell lines including A549 (lung carcinoma), BT20 (estrogen receptor-negative human breast adenocarcinoma), MCF-7 (estrogen receptor-positive human breast adenocarcinoma) and U2OS (human osteosarcoma) were purchased from American Type Culture Collection (ATCC). An A549 cell line that stably expresses Green Fluorescent Protein (GFP) was purchased from Cell BioLabs Inc. (San Diego, Calif., USA). A549, A549-GFP and BT20 cells were cultured in RPMI 1640 media (Sigma-Aldrich, St. Louis, Mo., USA), MCF7 cells were cultured in DMEM medium (ATCC, Manassas, Va., USA), and U20S cells were cultured in McCoy's 5A medium (ATCC, Manassas, Va., USA). As a control, HMEC cells (primary human mammary breast epithelial cells) were purchased from ATCC and cultured in McCoy's 5A medium. All medium contained 10% FBS (Sigma-Aldrich, St. Louis, Mo., USA) and 1% streptomycin and penicillin (Sigma-Aldrich, St. Louis, Mo., USA). These cells were incubated in a humid environment with 5% CO2 at 37° C.
(§2) Cell proliferation assay. The resazurin reduction reagent AlamarBlue (Invitrogen, Frederick, Md., USA) was used to evaluate the cytotoxicity of the compounds. Cells were plated at a density of 5×10^3 cells per well in 96-well microplates with 100 μl culture medium, and were allowed to attach for 16 h prior to treatment. Next, all the medium was replaced with medium containing the cis- or trans-suffruticosol D compounds at seven different concentrations: 320, 100, 32, 10, 3.2, 1.0, and 0.32 μM. The cells were placed in an incubator for 48 h at 37° C. Cells that were treated with medium-containing vehicle (1% DMSO) only serve as negative control. Subsequently, AlamarBlue solution was added to the medium and the cells were incubated in the CO2 incubator for 1 h. The fluorescent intensity change of the dye was measured at Ex 555 nm and Em 590 nm using a plate reader (Molecular Devices, Sunnyvale, Calif., USA). The cytotoxicity was examined by determining by IC50, the dose that inhibited 50% of cell growth, using GraphPad Prism software (GraphPad Software, La Jolla, Calif., USA).
(§3) Table 1. IC50 values of cis- and trans-suffruticosol D in selected cancer and normal cell lines. Cells were treated with various concentrations of cis- or trans-suffruticosol D for 48 h, and the viability of cells was evaluated with AlamarBlue dye.

Test [2] relates to apoptotic proteins in A549 cells. Put plainly: Apoptosis antibody array. It counts as cell-based, human. Conditions: 50 μM, 6 h.
The next test deals with A549-GFP cells. Kind of test: Cell motility assay (fluorescent bead track area). Conditions: 18 h, medium with 10% FBS. The class given is cell-based, human. The protocol: FIGS. 4A and 4B depict cell motility changes induced by cis- and trans-suffruticosol D in A549 cells. A549-GFP cells were seeded in 96-well plate with a monolayer of fluorescent beads. After treatment with cis- or trans-suffruticosol D for 18 h, individual cell movement was evaluated by measuring the fluorescent track area. Cells treated with serum free medium served as a negative control and cells treated with medium containing 10% serum served as a positive control.
Cell motility assay. A 96-well collagen plate (Corning, N.Y., USA) was coated with blue fluorescent beads (Life Technologies, Eugene, Oreg., USA) as follows. The beads were centrifuged for 1 min at 14,000 g and washed twice with PBS, then 75 μl beads were added to each well of the 96-well collagen plate and incubated for 1 h at 37° C. The cells were seeded on the lawn of fluorescent beads and the sizes of the tracks generated by migrating cells were measured. After the plate was washed 5 times with PBS, A549-GFP cells were seeded at 500 cells/well in the coated plate and incubated for 1 h at 37° C. Subsequently the cells were treated with different concentrations of cis- or trans-suffruticosol D in medium containing 10% FBS for 18 h. Cells treated with serum-free medium serve as the negative control and cells treated with medium containing 10% FBS serve as the positive control. Cell tracks were imaged using an Arrayscan VTI HCS reader (Thermo Scientific, Waltham, Mass., USA) and the data was analyzed by vHCS Scan software. The mean of the full track area per cell for the test compound and the controls was calculated.

The subject of test [3] is A549 (lung), BT20 (breast), MCF7 (breast) and U2OS (osteosarcoma) cancer cell lines. Put plainly: Cell proliferation assay, range over the four cancer cell lines. It counts as cell-based, human. Conditions: for IC50: A549, BT20, MCF7, U2OS, 48 h, read-out: IC50 values in all four cancer cell lines (range); for selectivity (range over cancer cell lines): cancer cell lines versus normal HMEC. The protocol: as §1, §2

The subject of test [4] is BT20 (estrogen receptor-negative human breast adenocarcinoma) cells. Kind of test: Cell proliferation assay (AlamarBlue), BT20. It counts as cell-based. Conditions: for IC50: BT20, 48 h, AlamarBlue; for Selectivity: BT20 versus normal HMEC cells. The protocol:
as §1, §2, §3
(In general: Resazurin is reduced to fluorescent resorufin, in cell work by metabolically active cells.)

In the next test the test system is A549 cells. Kind of test: Multi-parameter cytotoxicity assay (HCS). It counts as cell-based, human. Conditions: 24 h; for mitochondrial membrane potential: all tested concentrations. The protocol:
FIGS. 5A-D depict multi-parameter analysis of cytotoxicity induced by cis- and trans-suffruticosol D in A549 cells. A549 cells were treated with various concentrations of cis- or trans-suffruticosol D for 24 h, then stained with three dyes simultaneously (Hoechst, cell permeability dye, and mitochondrial membrane potential dye). Cells treated with vehicle only served as a negative control and cells treated with 10 μM valinomycin served as a positive control.
Multi-parameter cytotoxicity assay. HCS analysis was used to measure nuclear morphology, cell membrane permeability, and mitochondrial membrane potential changes, the three parameters associated with cytotoxicity. A549 cells were treated with different concentrations of cis- or trans-suffruticosol D for 24 h. The cells were then fixed and stained with a warm solution containing Hoechst dye, Membrane Permeability Dye, and Mitochondrial membrane Potential Dye (Thermo Scientific, Waltham, Mass., USA). Cells were imaged using an Arrayscan VTI HCS reader (Thermo Scientific, Waltham, Mass., USA). Data on nuclear size, cell permeability, and mitochondria membrane potential were collected and analyzed using vHCS Scan software.

Test [5] relates to A549 (lung carcinoma) cells. Kind of test: Cell proliferation assay (AlamarBlue), A549. Conditions: for IC50: A549, 48 h, AlamarBlue; for Selectivity: A549 versus normal HMEC cells. The class given is cell-based, human. The protocol: as §1, §2, §3

Each structure is given as a SMILES string. Read-outs that look alike come from different tables or passages of the source.

`Oc1ccc(C=Cc2c3c(cc4c2[C@@H](c2cc(O)cc(O)c2)[C@H](c2ccc(O)cc2)O4)O[C@H](c2ccc(O)cc2)[C@@H]3c2cc(O)cc(O)c2)cc1` [cis-suffruticosol D]: the IC50 – broadly, the concentration that inhibits the measured activity by half – in test [1] is 146 µM; in test [1] (listed as cis-SD), 269.5 ± 2.2 µM; in test [3], 13.4 to 46.8 µM; in test [4] (listed as cis-SD) it was 13.4 ± 2.5 µM; in test [5] (listed as cis-SD), 17.1 ± 1 µM. For the same compound, the “BH3 interacting-domain death agonist (BID) expression” value in test [2] is recorded as “up-regulated”. In test [2], the “cyclin-dependent kinase inhibitor 1B (p27Kip1) expression” value is reported as “up-regulated”. In test [2], the “death receptor 6 (DR6) expression” value is recorded as “up-regulated”. Also, the “decrease of A549 cell motility” value with A549-GFP cells (10 μM) turned out to be 42.3%; in the test with A549-GFP cells (32 μM), 42.0%; in the test with A549-GFP cells (100 μM) it was 50.4%. In test [3], the “selectivity (range over cancer cell lines)” value was 9.2-14.7 fold. The Selectivity was determined as 20 in test [4] (listed as cis-SD) and 15.8 in test [5] (listed as cis-SD). Moreover, the mitochondrial membrane potential entry in the test on A549 cells is recorded as “significant decrease”. Moreover, in the test with A549 cells (various concentrations), the cell membrane permeability entry was “no significant change”. Further, in the test on A549 cells (various concentrations), the nuclear size entry is given as “no significant change”.

On to `Oc1ccc(/C=C/c2c3c(cc4c2[C@@H](c2cc(O)cc(O)c2)[C@H](c2ccc(O)cc2)O4)O[C@H](c2ccc(O)cc2)[C@@H]3c2cc(O)cc(O)c2)cc1` [trans-suffruticosol D], for which the IC50 in test [1] (listed as trans-SD) is 146 ± 2.7 µM; in test [1] (Homo sapiens, HMEC), 270 µM; in test [3] it was 9.93 to 20.8 µM; in test [3] (Homo sapiens) it was 9.93 to 15.8 µM; in test [4] (Homo sapiens, BT-20, 48 h), 9.9 ± 3.8 µM; in test [5] (Homo sapiens) it was 11.9 ± 1.2 µM. In addition, the “BH3 interacting-domain death agonist (BID) expression” value in test [2] is listed as “up-regulated”. The “cyclin-dependent kinase inhibitor 1B (p27Kip1) expression” value in test [2] is “up-regulated”. The “death receptor 6 (DR6) expression” value in test [2] was “up-regulated”. Moreover, the “decrease of A549 cell motility” value is recorded as 40.7% in the test with A549-GFP cells (10 μM), 40.7% with A549-GFP cells (32 μM) and 54.9% in the test on A549-GFP cells (100 μM). Further, the “selectivity (range over cancer cell lines)” value in test [3] is recorded as 5.8-20 fold. Further, the Selectivity in test [4] (listed as trans-SD) was determined as 14.8; in test [5] (listed as trans-SD) it was 12.3. Further, the cell membrane permeability entry with A549 cells (100 μM) is on record as “increased cell membrane permeability”. Moreover, in the test on A549 cells (100 μM), the nuclear size result is reported as “nuclei shrinkage”. Further, the mitochondrial membrane potential result in the test with A549 cells is reported as “significant decrease”.

Values taken from patent publication US20180221329A1, “CIS- AND TRANS-SUFFRUTICOSOL D AS THERAPEUTIC AGENTS” (MIDDLE TENNESSEE STATE UNIVERSITY, priority 2015, published 2018).
